Data on one molecule can be found in publication PMC4015918, “Conjugation to a SMAC mimetic potentiates sigma-2 ligand induced tumor cell death in ovarian cancer” (Molecular Cancer, 2014).

SMILES strings stand for the structures.

Common to all, as to assay type: cell-based
The subject of one test is TNFα mRNA. Kind of test: Quantitative RT-PCR of TNFα mRNA. The settings on record: SKOV3 cells, 1 μM and 3 μM, 4-24 hours, normalized to GAPDH; maximal at 24 hours. The method, then:
(§1) Figure 5 SW IV-134 induces activation of the TNFα-dependent extrinsic death pathway. (A) Quantitative real-time PCR analysis of TNFα mRNA expression was done on RNA samples derived from SKOV3 cells treated with SW IV-134 (1 μM and 3 μM) for indicated time periods. All values were normalized to a GAPDH internal control (p < 0.0001, one-way ANOVA). (B) SKOV3 cells were treated with SW IV-134 (1 μM and 3 μM) and cell-culture supernatants were collected at 4, 12, and 24 hours after treatment, and subsequently examined by anti-TNFα ELISA according to manufacturer’s instructions (p < 0.0001, one-way ANOVA). (C) SKOV3 cells were treated with SW IV-134 at indicated doses either alone or in the presence of anti-TNFα blocking antibody for 18 hours. Cell viability was determined as described in the experimental methods (p < 0.019, Student’s t-test).
SKOV3 cells were treated with SW IV-134 (1 μM, 3 μM) or vehicle-control for 4 hours, 12 hours, and 24 hours. At the end of each treatment, cells were harvested and total RNA was isolated using TRIzol reagent (Invitrogen, Grand Island, NY) and RT-PCR performed as per the protocol described before. Briefly, one microgram of RNA from each sample was reverse transcribed to cDNA with Retroscript (Ambion, Austin, TX). […] TNFα data were normalized for expression with GAPDH, and results were expressed as fold change over untreated controls.

The test system of a further test is SKOV3 cells. Kind of test: Annexin V binding (apoptosis), flow cytometry. The settings on record: SKOV3 cells, 3, 6 and 10 μM, 16 hours. The method, then:
SKOV3 cells were treated with different concentrations of SW IV-134 (3 μM, 6 μM, and 10 μM) for 16 hours. Staining was performed using the Annexin V Apoptosis Detection Kit (BioLegend, San Diego, CA) according to the manufacturer’s instructions. The apoptosis rate was determined by flow cytometry (FACSCalibur, BD Biosciences, San Jose, CA).
Supplementary file 1476-4598-13-50-S4.pdf: Additional file 4: Figure S3 Flow cytometric determination of apoptosis. SKOV3 cells were treated with increasing concentrations of SW IV-134. Untreated cells served as a negative staining control. The cells were then assessed for apoptosis induction by flow cytometry following staining with propidium iodide/Annexin V. Click here for file

Another test relates to TNFα. Kind of test: TNFα ELISA of cell culture supernatants. The settings on record: SKOV3 conditioned medium, 1 μM and 3 μM. The method, then: as §1
SKOV3 cells were treated with SW IV-134 (1 μM and 3 μM). Cell culture supernatants were collected at 4, 12, and 24 hours after treatment. Medium was collected, floating cells were removed by centrifugation at 1200 × g for 5 minutes, and samples were frozen at -20°C until analysis. TNFα ELISA was performed using a quantitative high sensitivity sandwich immunoassay from eBioscience (San Diego, CA) as per the manufacturer’s instructions.
A general note: ELISA stands for enzyme-linked immunosorbent assay.

As for `COc1ccc(C)cc1NC(=O)OC1CC2CCCC(C1)N2CCCCCCCCCCN[C@@H](C)C(=O)N[C@H](C(=O)N1CCC[C@H]1C(=O)N[C@@H]1CCCc2ccccc21)C(C)(C)C` (some centres unmarked) [SW IV-134], the “Increase in TNFα mRNA levels compared to untreated cells” value in the test on TNFα mRNA was 20-50 fold. For the same molecule, the “Annexin V binding” value with SKOV3 cells is listed as “increased Annexin V binding relative to the untreated control cells in a dose dependent manner”. The TNFα protein secretion entry with TNFα (4 hours) is “undetectable”; with TNFα (12 hours), “mildly elevated”; with TNFα (24 hours) it was “highest levels”.
